In paper PMC8245078, “Development of novel benzofuran-isatin conjugates as potential antiproliferative agents with apoptosis inducing mechanism in Colon cancer” (Journal of Enzyme Inhibition and Medicinal Chemistry, 2021):
Like-named read-outs stand apart in the source and are kept apart here.

Assays:
Assay in all cases: NCI single dose screening (10 µM)
Assay type in all cases: cell-based
CCRF-CEM = conditions: Homo sapiens, read-out: GI% (cell growth inhibition percentage)
MOLT-4 = conditions: Homo sapiens
HL-60(TB) = conditions: Homo sapiens
K-562 = conditions: Homo sapiens
SR = conditions: Homo sapiens, read-out: GI% (cell growth inhibition percentage)
A549/ATCC = conditions: Homo sapiens
HOP-62 = conditions: Homo sapiens
NCI-H460 = conditions: Homo sapiens
HCT-15 = conditions: Homo sapiens
HT-29 = conditions: Homo sapiens
SF-268 = conditions: Homo sapiens
SF-295 = conditions: Homo sapiens
MALME-3M = conditions: Homo sapiens, read-out: GI% (cell growth inhibition percentage)
LOX IMVI = conditions: Homo sapiens, read-out: GI% (cell growth inhibition percentage)
MDA-MB-435 = conditions: Homo sapiens
SK-MEL-2 = conditions: Homo sapiens
SK-MEL-28 = conditions: Homo sapiens
NCI/ADR-RES = conditions: Homo sapiens, read-out: GI% (cell growth inhibition percentage)
IGROV1 = conditions: Homo sapiens
OVCAR-3 = conditions: Homo sapiens
OVCAR-5 = conditions: Homo sapiens
786-0 = conditions: Homo sapiens
CAKI-1 = conditions: Homo sapiens
SN12C = conditions: Homo sapiens, read-out: GI% (cell growth inhibition percentage)
UO-31 = conditions: Homo sapiens
TK-10 = conditions: Homo sapiens
PC-3 = conditions: Homo sapiens
MCF7 = conditions: Homo sapiens
BT-549 = conditions: Homo sapiens
MDA-MB-231/ATCC = conditions: Homo sapiens
HS 578 T = conditions: Homo sapiens, read-out: GI% (cell growth inhibition percentage)
MDA-MB-468 = conditions: Homo sapiens
[1] = MOLT-4, Leukaemia, single dose 10^−5 M, read-out: GI% (cell growth inhibition percentage)
[2] = K562, K-562, Leukaemia, single dose 10^−5 M, read-out: GI% (cell growth inhibition percentage)
[3] = A549/ATCC, Non-small cell lung cancer, single dose 10^−5 M, read-out: GI% (cell growth inhibition percentage)
[4] = HOP-62, Non-small cell lung cancer, single dose 10^−5 M, read-out: GI% (cell growth inhibition percentage)
[5] = NCI-H460, Non-small cell lung cancer, single dose 10^−5 M, read-out: GI% (cell growth inhibition percentage)
[6] = HCT-15, Colon cancer, single dose 10^−5 M, read-out: GI% (cell growth inhibition percentage)
[7] = HT-29, Colon cancer, single dose 10^−5 M, read-out: GI% (cell growth inhibition percentage)
[8] = SF-268, CNS cancer, single dose 10^−5 M, read-out: GI% (cell growth inhibition percentage)
[9] = SF-295, CNS cancer, single dose 10^−5 M, read-out: GI% (cell growth inhibition percentage)
[10] = MALME-3M, Melanoma, single dose 10^−5 M
[11] = MDA-MB-435, Melanoma, single dose 10^−5 M, read-out: GI% (cell growth inhibition percentage)
[12] = SK-MEL-2, Melanoma, single dose 10^−5 M, read-out: GI% (cell growth inhibition percentage)
[13] = SK-MEL-28, Melanoma, single dose 10^−5 M, read-out: GI% (cell growth inhibition percentage)
[14] = Ovarian cancer, single dose 10^−5 M
[15] = IGROV-1, IGROV1, Ovarian cancer, single dose 10^−5 M, read-out: GI% (cell growth inhibition percentage)
[16] = OVCAR-3, Ovarian cancer, single dose 10^−5 M, read-out: GI% (cell growth inhibition percentage)
[17] = OVCAR-5, Ovarian cancer, single dose 10^−5 M, read-out: GI% (cell growth inhibition percentage)
[18] = 786-0, Renal cancer, single dose 10^−5 M, read-out: GI% (cell growth inhibition percentage)
[19] = CAKI-1, Renal cancer, single dose 10^−5 M, read-out: GI% (cell growth inhibition percentage)
[20] = Renal cancer, single dose 10^−5 M
[21] = UO-31, Renal cancer, single dose 10^−5 M, read-out: GI% (cell growth inhibition percentage)
[22] = TK-10, Renal cancer, single dose 10^−5 M, read-out: GI% (cell growth inhibition percentage)
[23] = PC-3, Prostate cancer, single dose 10^−5 M, read-out: GI% (cell growth inhibition percentage)
[24] = MCF7, Breast cancer, single dose 10^−5 M, read-out: GI% (cell growth inhibition percentage)
[25] = BT-549, Breast cancer, single dose 10^−5 M, read-out: GI% (cell growth inhibition percentage)
[26] = MDA-MB-231/ATCC, Breast cancer, single dose 10^−5 M, read-out: GI% (cell growth inhibition percentage)
[27] = HS 578 T, Breast cancer, single dose 10^−5 M
[28] = MDA-MB-468, Breast cancer, single dose 10^−5 M, read-out: GI% (cell growth inhibition percentage)
[29] = HL-60, read-out: GI% (cell growth inhibition percentage)

## Cc1c(C(=O)N/N=C2\C(=O)Nc3ccc(Br)cc32)oc2ccccc12 [Compound 5c]
CCRF-CEM; Leukaemia, single dose 10^−5 M
  inhibition at 10 µM: < 10%
MOLT-4; [1]
  inhibition at 10 µM: < 10%
HL-60(TB); HL-60(TB), Leukaemia, single dose 10^−5 M, read-out: GI% (cell growth inhibition percentage)
  inhibition at 10 µM: 21.5%
K-562; [2]
  inhibition at 10 µM: 18%
SR; Leukaemia, single dose 10^−5 M
  inhibition at 10 µM: 17.6%
A549/ATCC; [3]
  inhibition at 10 µM: 27.9%
HOP-62; [4]
  inhibition at 10 µM: 41.4%
NCI-H460; [5]
  inhibition at 10 µM: 42.6%
HCT-15; [6]
  inhibition at 10 µM: < 10%
HT-29; [7]
  inhibition at 10 µM: < 10%
SF-268; [8]
  inhibition at 10 µM: 11.7%
SF-295; [9]
  inhibition at 10 µM: 20.3%
MALME-3M; [10]
  inhibition at 10 µM: 64.9%
LOX IMVI; Melanoma, single dose 10^−5 M
  inhibition at 10 µM: 33.8%
MDA-MB-435; [11]
  inhibition at 10 µM: < 10%
SK-MEL-2; [12]
  inhibition at 10 µM: < 10%
SK-MEL-28; [13]
  inhibition at 10 µM: < 10%
NCI/ADR-RES; [14]
  inhibition at 10 µM: 29.3%
IGROV1; [15]
  inhibition at 10 µM: 44.6%
OVCAR-3; [16]
  inhibition at 10 µM: < 10%
OVCAR-5; [17]
  inhibition at 10 µM: < 10%
786-0; [18]
  inhibition at 10 µM: 34.7%
CAKI-1; [19]
  inhibition at 10 µM: 26.6%
SN12C; [20]
  inhibition at 10 µM: 29.8%
UO-31; [21]
  inhibition at 10 µM: 43.4%
TK-10; [22]
  inhibition at 10 µM: < 10%
PC-3; [23]
  inhibition at 10 µM: 13.8%
MCF7; [24]
  inhibition at 10 µM: 26.7%
BT-549; [25]
  inhibition at 10 µM: 22.1%
MDA-MB-231/ATCC; [26]
  inhibition at 10 µM: 29.9%
HS 578 T; [27]
  inhibition at 10 µM: 46.3%
MDA-MB-468; [28]
  inhibition at 10 µM: < 10%

## COc1ccc2c(c1)/C(=N/NC(=O)c1oc3ccccc3c1C)C(=O)N2 [Compound 5d]
CCRF-CEM; Leukaemia, single dose 10^−5 M
  inhibition at 10 µM: 42.9%
MOLT-4; [1]
  inhibition at 10 µM: 49.1%
HL-60(TB); [29]
  inhibition at 10 µM: 46.1%
K-562; [2]
  inhibition at 10 µM: 57.5%
SR; Leukaemia, single dose 10^−5 M
  inhibition at 10 µM: 56.5%
A549/ATCC; [3]
  inhibition at 10 µM: 124%
HOP-62; [4]
  inhibition at 10 µM: 124%
NCI-H460; [5]
  inhibition at 10 µM: 123%
HCT-15; [6]
  inhibition at 10 µM: 50.9%
HT-29; [7]
  inhibition at 10 µM: 72.7%
SF-268; [8]
  inhibition at 10 µM: 42.3%
SF-295; [9]
  inhibition at 10 µM: 95%
MALME-3M; [10]
  inhibition at 10 µM: 129%
LOX IMVI; Melanoma, single dose 10^−5 M
  inhibition at 10 µM: 83.7%
MDA-MB-435; [11]
  inhibition at 10 µM: 61%
SK-MEL-2; [12]
  inhibition at 10 µM: 29.1%
SK-MEL-28; [13]
  inhibition at 10 µM: 84.2%
NCI/ADR-RES; [14]
  inhibition at 10 µM: 69.5%
IGROV1; [15]
  inhibition at 10 µM: 93.7%
OVCAR-3; [16]
  inhibition at 10 µM: 166%
OVCAR-5; [17]
  inhibition at 10 µM: 52.3%
786-0; [18]
  inhibition at 10 µM: 167%
CAKI-1; [19]
  inhibition at 10 µM: 152%
SN12C; [20]
  inhibition at 10 µM: 65.1%
UO-31; [21]
  inhibition at 10 µM: 155%
TK-10; [22]
  inhibition at 10 µM: 194%
PC-3; [23]
  inhibition at 10 µM: 78.2%
MCF7; [24]
  inhibition at 10 µM: 77.1%
BT-549; [25]
  inhibition at 10 µM: 29.9%
MDA-MB-231/ATCC; [26]
  inhibition at 10 µM: 76.2%
HS 578 T; [27]
  inhibition at 10 µM: 74.5%
MDA-MB-468; [28]
  inhibition at 10 µM: 80.1%

## CCCN1C(=O)/C(=N\NC(=O)c2oc3ccccc3c2C)c2cc(Br)ccc21 [Compound 7g]
CCRF-CEM
  inhibition at 10 µM: < 10%
MOLT-4; MOLT-4, read-out: GI% (cell growth inhibition percentage)
  inhibition at 10 µM: < 10%
HL-60(TB); [29]
  inhibition at 10 µM: < 10%
K-562; K562, read-out: GI% (cell growth inhibition percentage)
  inhibition at 10 µM: < 10%
SR
  inhibition at 10 µM: < 10%
A549/ATCC; A549, read-out: GI% (cell growth inhibition percentage)
  inhibition at 10 µM: < 10%
HOP-62; HOP-62, read-out: GI% (cell growth inhibition percentage)
  inhibition at 10 µM: < 10%
NCI-H460; NCI-H460, read-out: GI% (cell growth inhibition percentage)
  inhibition at 10 µM: < 10%
HCT-15; HCT-15, read-out: GI% (cell growth inhibition percentage)
  inhibition at 10 µM: < 10%
HT-29; HT-29, read-out: GI% (cell growth inhibition percentage)
  inhibition at 10 µM: < 10%
SF-268; SF-268, read-out: GI% (cell growth inhibition percentage)
  inhibition at 10 µM: < 10%
SF-295; SF-295, read-out: GI% (cell growth inhibition percentage)
  inhibition at 10 µM: < 10%
MALME-3M; Malme-3M
  inhibition at 10 µM: 16%
LOX IMVI
  inhibition at 10 µM: < 10%
MDA-MB-435; MDA-MB-435, read-out: GI% (cell growth inhibition percentage)
  inhibition at 10 µM: < 10%
SK-MEL-2; SK-MEL-2, read-out: GI% (cell growth inhibition percentage)
  inhibition at 10 µM: < 10%
SK-MEL-28; SK-MEL-28, read-out: GI% (cell growth inhibition percentage)
  inhibition at 10 µM: < 10%
NCI/ADR-RES
  inhibition at 10 µM: < 10%
IGROV1; IGROV-1, read-out: GI% (cell growth inhibition percentage)
  inhibition at 10 µM: 22.4%
OVCAR-3; OVCAR-3, read-out: GI% (cell growth inhibition percentage)
  inhibition at 10 µM: < 10%
OVCAR-5; OVCAR-5, read-out: GI% (cell growth inhibition percentage)
  inhibition at 10 µM: < 10%
786-0; 786-0, read-out: GI% (cell growth inhibition percentage)
  inhibition at 10 µM: < 10%
CAKI-1; CAKI-1, read-out: GI% (cell growth inhibition percentage)
  inhibition at 10 µM: 14.1%
SN12C
  inhibition at 10 µM: < 10%
UO-31; UO-31, read-out: GI% (cell growth inhibition percentage)
  inhibition at 10 µM: 21.9%
TK-10; TK-10, read-out: GI% (cell growth inhibition percentage)
  inhibition at 10 µM: < 10%
PC-3; PC-3, read-out: GI% (cell growth inhibition percentage)
  inhibition at 10 µM: < 10%
MCF7; MCF7, read-out: GI% (cell growth inhibition percentage)
  inhibition at 10 µM: 13.2%
BT-549; BT-549, read-out: GI% (cell growth inhibition percentage)
  inhibition at 10 µM: < 10%
MDA-MB-231/ATCC; MDA-MB-231, read-out: GI% (cell growth inhibition percentage)
  inhibition at 10 µM: < 10%
HS 578 T; Hs-578T
  inhibition at 10 µM: < 10%
MDA-MB-468; MDA-MB-468, read-out: GI% (cell growth inhibition percentage)
  inhibition at 10 µM: < 10%
